How the values were obtained:
[1] = target: T1, Proto-oncogene tyrosine-protein kinase Src (Homo sapiens, UniProt P12931)
Description: Inhibition of human recombinant Src after 70 mins by FRET assay

HT-29 = test: In vivo antitumor activity against human HT-29 cells at 150 mg/kg, po qd for 14 days measured on day 21; assay type: functional
[2] = Plasma concentration in nude mouse at 50 mg/kg, po after 24 hrs; assay type: ADME, organism-based; set-up: dose 50 mg/kg, route oral
[3] = Half life in nude mouse microsomes; assay type: ADME, Microsome
[4] = target: Tyrosine-protein kinase ABL1 (Homo sapiens, UniProt P00519); test: Inhibition of Abl
[5] = Half life in rat liver microsomes; assay type: ADME, Microsome
[6] = Half life in human microsomes; assay type: ADME, Microsome
[7] = target: Serine/threonine-protein kinase mTOR (Homo sapiens, UniProt P42345); test: Inhibition of mTOR
[8] = target: Mitogen-activated protein kinase kinase kinase 8 (Homo sapiens, UniProt P41279); test: Inhibition of TPL2
[9] = Inhibition of IKK
[10] = Inhibition of IGFR
[11] = target: RAC-alpha serine/threonine-protein kinase (Homo sapiens, UniProt P31749); test: Inhibition of AKT
[12] = target: T1, Proto-oncogene tyrosine-protein kinase Src; test: Inhibition of human recombinant Src at 10 uM after 70 mins by FRET assay

T1 sequence (P12931 2-536 limits assumed): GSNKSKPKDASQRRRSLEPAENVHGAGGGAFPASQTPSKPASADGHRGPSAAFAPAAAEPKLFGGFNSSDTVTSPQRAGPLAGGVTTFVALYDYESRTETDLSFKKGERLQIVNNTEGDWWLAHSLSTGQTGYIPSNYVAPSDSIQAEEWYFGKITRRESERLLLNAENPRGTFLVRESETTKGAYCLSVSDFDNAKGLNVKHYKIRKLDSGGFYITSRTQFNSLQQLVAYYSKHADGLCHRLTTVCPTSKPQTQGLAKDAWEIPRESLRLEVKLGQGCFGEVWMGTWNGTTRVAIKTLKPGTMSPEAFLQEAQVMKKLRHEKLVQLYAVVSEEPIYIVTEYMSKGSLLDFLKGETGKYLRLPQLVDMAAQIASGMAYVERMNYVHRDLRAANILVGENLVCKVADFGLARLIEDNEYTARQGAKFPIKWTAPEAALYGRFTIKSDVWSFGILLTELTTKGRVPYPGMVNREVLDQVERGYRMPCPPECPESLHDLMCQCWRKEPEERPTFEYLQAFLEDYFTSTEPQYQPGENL
Sequence of Mitogen-activated protein kinase kinase kinase 8 (P41279 whole entry): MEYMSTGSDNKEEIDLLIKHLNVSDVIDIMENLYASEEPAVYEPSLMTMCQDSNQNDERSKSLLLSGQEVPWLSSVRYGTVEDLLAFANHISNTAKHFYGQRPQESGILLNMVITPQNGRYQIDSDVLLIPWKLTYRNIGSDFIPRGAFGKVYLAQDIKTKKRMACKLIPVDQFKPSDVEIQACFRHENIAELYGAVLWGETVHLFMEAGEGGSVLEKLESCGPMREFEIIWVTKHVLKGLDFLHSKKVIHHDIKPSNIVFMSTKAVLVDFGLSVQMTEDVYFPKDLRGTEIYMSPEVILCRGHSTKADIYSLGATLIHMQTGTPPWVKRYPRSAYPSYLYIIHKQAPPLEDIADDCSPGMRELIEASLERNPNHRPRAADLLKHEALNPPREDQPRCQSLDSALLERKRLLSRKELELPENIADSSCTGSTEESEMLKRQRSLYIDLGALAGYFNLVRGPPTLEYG
Sequence of Tyrosine-protein kinase ABL1 (P00519 whole entry): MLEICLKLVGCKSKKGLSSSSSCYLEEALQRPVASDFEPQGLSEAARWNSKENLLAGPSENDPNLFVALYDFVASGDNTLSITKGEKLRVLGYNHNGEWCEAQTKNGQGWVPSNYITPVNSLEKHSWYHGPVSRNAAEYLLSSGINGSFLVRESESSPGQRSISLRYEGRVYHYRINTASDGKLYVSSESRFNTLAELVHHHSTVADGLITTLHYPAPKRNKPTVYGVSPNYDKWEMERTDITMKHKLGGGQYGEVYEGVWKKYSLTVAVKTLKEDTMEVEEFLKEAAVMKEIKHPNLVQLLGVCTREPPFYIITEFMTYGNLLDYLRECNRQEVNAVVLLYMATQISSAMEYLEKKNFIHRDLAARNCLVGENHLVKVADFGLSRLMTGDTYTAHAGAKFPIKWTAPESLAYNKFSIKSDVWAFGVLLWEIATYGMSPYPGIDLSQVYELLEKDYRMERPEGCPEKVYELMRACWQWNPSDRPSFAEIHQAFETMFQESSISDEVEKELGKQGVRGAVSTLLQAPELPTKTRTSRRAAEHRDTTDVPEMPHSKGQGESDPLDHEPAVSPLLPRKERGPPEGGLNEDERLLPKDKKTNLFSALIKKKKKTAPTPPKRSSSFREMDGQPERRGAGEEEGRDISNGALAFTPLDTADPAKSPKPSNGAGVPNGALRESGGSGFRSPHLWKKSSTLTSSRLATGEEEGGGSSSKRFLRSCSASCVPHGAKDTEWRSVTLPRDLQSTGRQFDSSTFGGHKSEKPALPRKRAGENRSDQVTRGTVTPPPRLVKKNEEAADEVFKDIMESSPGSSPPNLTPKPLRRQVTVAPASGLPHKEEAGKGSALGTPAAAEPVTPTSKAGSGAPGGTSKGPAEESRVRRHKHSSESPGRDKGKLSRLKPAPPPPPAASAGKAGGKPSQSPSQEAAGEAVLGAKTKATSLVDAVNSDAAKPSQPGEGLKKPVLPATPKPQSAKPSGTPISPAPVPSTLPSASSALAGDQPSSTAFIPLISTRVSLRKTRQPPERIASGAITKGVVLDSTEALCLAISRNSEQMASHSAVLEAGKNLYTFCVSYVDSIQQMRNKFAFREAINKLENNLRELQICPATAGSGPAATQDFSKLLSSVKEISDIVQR
Sequence of RAC-alpha serine/threonine-protein kinase (P31749 whole entry): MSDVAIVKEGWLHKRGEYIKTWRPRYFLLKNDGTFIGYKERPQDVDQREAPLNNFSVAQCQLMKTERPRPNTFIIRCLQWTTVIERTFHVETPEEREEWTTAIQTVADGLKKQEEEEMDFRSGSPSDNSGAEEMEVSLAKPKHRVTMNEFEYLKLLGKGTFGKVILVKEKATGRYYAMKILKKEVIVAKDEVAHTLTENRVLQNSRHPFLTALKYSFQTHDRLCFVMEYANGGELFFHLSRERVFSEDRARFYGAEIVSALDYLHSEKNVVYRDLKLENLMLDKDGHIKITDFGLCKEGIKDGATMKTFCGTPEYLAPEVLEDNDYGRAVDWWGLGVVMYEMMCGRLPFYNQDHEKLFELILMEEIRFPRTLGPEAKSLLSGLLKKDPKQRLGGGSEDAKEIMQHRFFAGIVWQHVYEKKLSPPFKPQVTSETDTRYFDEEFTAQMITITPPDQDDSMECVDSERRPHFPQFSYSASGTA

## COc1cc(Nc2c(C#N)cnc3ccc(/C=C/CCN4CCOCC4)cc23)c(Cl)cc1Cl
[1]
  IC50: 340 nM

## COc1cc(Nc2c(C#N)cnc3cc(OCCCN4CCN(C)CC4)c(OC)cc23)c(Cl)cc1Cl [BOSUTINIB]
HT-29
  T/C: 0.43
[2]
  concentration at 24 h: 40 ng/mL

## COc1cc(Nc2c(C#N)cnc3cc(/C=C/CCN4CCN(C)CC4)c(OC)cc23)c(Cl)cc1Cl
[3]
  half-life: 33 min
[4]
  IC50: 0.4 nM
[5]
  half-life: 10 min
[6]
  half-life: 11 min
[7]
  IC50: > 10000 nM
HT-29
  T/C: 0.36
[8]
  IC50: > 10000 nM
[9]
  IC50: > 10000 nM
[10]
  IC50: > 10000 nM
[11]
  IC50: > 10000 nM
[1]
  IC50: 2.1 nM

## COc1cc(Nc2c(C#N)cnc3cc(/C=C/c4ccc(CN(C)C)cn4)c(OC)cc23)c(Cl)cc1Cl
[2]
  concentration at 24 h: 36 ng/mL
[1]
  IC50: 2.2 nM

## CCN1CCN(CC/C=C/c2cc3ncc(C#N)c(Nc4cc(OC)c(Cl)cc4Cl)c3cc2OC)CC1
[5]
  half-life: > 30 min
[1]
  IC50: 1.7 nM

## COc1cc(Nc2c(C#N)cnc3cc(/C=C/CN4CCOCC4)c(OC)cc23)c(Cl)cc1Cl
[1]
  IC50: 8.7 nM

## COc1cc(Nc2c(C#N)cnc3cc(/C=C/CCCCCCCCCN4CCOCC4)c(OC)cc23)c(Cl)cc1Cl
[1]
  IC50: 130 nM

## COc1cc(Nc2c(C#N)cnc3cc(/C=C/CCN4CCOCC4)ccc23)c(Cl)cc1Cl
[1]
  IC50: 15 nM

## COc1cc(Nc2c(C#N)cnc3cc(/C=C/CCN4CCCCC4)c(OC)cc23)c(Cl)cc1Cl
[5]
  half-life: > 30 min
[1]
  IC50: 2.6 nM

## COc1cc(Nc2c(C#N)cnc3cc(/C=C/c4ccc(CN(C)C)cc4)c(OC)cc23)c(Cl)cc1Cl
[2]
  concentration at 24 h: 10 ng/mL
[1]
  IC50: 2.4 nM

## COc1cc(Nc2c(C#N)cnc3cc(/C=C/CCN4CCOCC4)c(OC)cc23)c(Cl)cc1Cl
[1]
  IC50: 4.8 nM

## COc1cc(Nc2c(C#N)cnc3cc(/C=C/CCN(C)C)c(OC)cc23)c(Cl)cc1Cl
[5]
  half-life: > 30 min
[1]
  IC50: 2.5 nM

## COc1cc(Nc2c(C#N)cnc3cc(/C=C/c4cccc(CN(C)C)c4)c(OC)cc23)c(Cl)cc1Cl
[1]
  IC50: 3 nM

## COc1cc(Nc2c(C#N)cnc3cc(/C=C/c4cccc(CN(C)C)n4)c(OC)cc23)c(Cl)cc1Cl
[2]
  concentration at 24 h: 28 ng/mL
[1]
  IC50: 2.2 nM

## N#Cc1cnc2cc(/C=C/CCN3CCOCC3)ccc2c1Nc1ccc(Cl)cc1Cl
[1]
  IC50: 41 nM

## N#Cc1cnc2ccc(/C=C/CCN3CCOCC3)cc2c1Nc1ccc(Cl)cc1Cl
[1]
  IC50: 1200 nM

## COc1cc(Nc2c(C#N)cnc3cc(/C=C/CCCCN4CCOCC4)c(OC)cc23)c(Cl)cc1Cl
[1]
  IC50: 18 nM

## COc1cc(Nc2c(C#N)cnc3c(/C=C/CCN4CCOCC4)cccc23)c(Cl)cc1Cl
[12]
  inhibition: 52%

## COc1cc(Nc2c(C#N)cnc3cc(/C=C/CCCN4CCOCC4)c(OC)cc23)c(Cl)cc1Cl
[1]
  IC50: 5.4 nM

## COc1cc(Nc2c(C#N)cnc3cc(/C=C/c4cc(CN(C)C)ccn4)c(OC)cc23)c(Cl)cc1Cl
[1]
  IC50: 6.8 nM
